Data published in patent publication US20150368242A1, “NOVEL TETRAHYDROPYRIDOPYRIMIDINONE DERIVATIVE” (Ajinomoto Co., Inc., priority 2013, published 2015).
Where “and” joins values, the source holds several entries; their conditions need not be identical. Equal entries are not always repeated. Structures can show the parent of a compound that is named as a salt. Where two headings read alike, the source gives them in different places.

How the values were obtained:
[1] = biological target: T1, recombinant human MGAT2 enzyme (Homo sapiens, UniProt Q3SYC2); assay: Test for human MGAT2 activity inhibitory action (14C-oleoyl CoA, recombinant enzyme microsomes); format: biochemical; parameters: key to Potency relative to Comparative Example 1 (higher = more potent): % inhibition = {1−(C−B)/(A−B)}×100, B = 10 μM Comparative Example 1
T1 construct: made in house; host or cells: CHO-K1 (Jump-In CHO-K1 Kit, Life Technologies); microsomal fraction used as the enzyme solution
Method in brief: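 Microsomes from CHO-K1 cells expressing human MGAT2 (0.67 μg/mL) reacted 30 min at 37 °C with 50 μM 2-monooleoyl glycerol, 50 μM oleoyl CoA, 2.2 μM 1-14C-oleoyl CoA and 8.3 μM orlistat in 50 mM Tris pH 7.4, 6 mM MgCl2, 2 mg/mL BSA, 0.3% DMSO. Heptane-extracted 14C counted; inhibition normalized between no-compound and 10 μM reference-compound controls.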

[2] = test system: orally lipid-loaded mouse model (C57BL/6J mice); assay: Test for lipid absorption inhibitory action (orally lipid-loaded mouse model); format: in vivo; settings: for Lipid absorption inhibition ratio (%): plasma neutral fat AUC up to 6 hours after corn oil
Protocol: The lipid absorption inhibitory action of the compounds of Examples 5 and 60 and the compound of Comparative Example 1 was examined in an orally lipid-loaded mouse model. In this test, 10 to 11-week old male C57BL/6J mice (CLEA Japan, Inc.) were used. After the mice were fasted for 17 hours from the preceding day, blood was collected from the fundus, and further the mice were subjected to forced oral administration of one of the compounds or the medium (0.5% methyl cellulose). Thirty minutes after the administration, tyloxapol (500 mg/kg) was administered into the tail vein, and corn oil (200 μl) was orally administered (n=5-6). Blood was collected via the tail vein 2, 4, and 6 hours after the administration of corn oil, and plasma was obtained by centrifuging the blood. The neutral fat concentration in the plasma was measured by using Triglyceride E-Test Wako (Wako Pure Chemical Industries, Ltd.). The neutral fat concentration in the plasma before the administration of the compound was taken as the value at 0 hours, and the area under the curve (AUC) of the neutral fat concentration in the plasma up to 6 hours after the administration of corn oil was calculated. From the average value of the AUC of each administration group, the lipid absorption inhibition ratio was obtained by using the following formula.
Lipid absorption inhibition ratio (%)=(Average value of AUC of medium administration group-Average value of AUC of compound administration group)/Average value of AUC of medium administration group×100

[3] = Table 5, Examples 25 to 60, same method, read-out: IC50
[4] = Table 5, relative to Comparative Example 1 measured in the same run

T1 sequence (Q3SYC2 whole entry): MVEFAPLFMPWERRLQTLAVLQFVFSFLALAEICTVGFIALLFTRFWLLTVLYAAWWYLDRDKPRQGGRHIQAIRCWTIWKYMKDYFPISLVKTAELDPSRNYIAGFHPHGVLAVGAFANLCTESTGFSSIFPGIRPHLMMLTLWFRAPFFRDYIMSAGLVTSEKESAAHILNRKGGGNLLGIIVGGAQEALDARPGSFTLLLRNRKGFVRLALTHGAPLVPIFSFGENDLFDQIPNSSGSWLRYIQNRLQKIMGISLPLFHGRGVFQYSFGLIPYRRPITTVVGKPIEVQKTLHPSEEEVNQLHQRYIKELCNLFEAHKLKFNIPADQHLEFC

COc1ccc(CNc2nc3c(c(=O)n2-c2ccccc2)CN(C(=O)Nc2ccc(C(F)(F)F)cc2)CC3)cc1 [Comparative Example 1, reference compound]
IC50 ([1]; First Test (Table 3), read-out: IC50): 223 nM
IC50 ([1]; Second Test (Table 4), read-out: IC50): 303 nM
IC50 ([1]; Table 5, Comparative Example 1 measured alongside the Example, read-out: IC50 (nM) of Comp. Ex. 1): 210 nM and 170 nM and 150 nM and 140 nM and 295 nM and 137 nM and 180 nM and 250 nM and 300 nM and 270 nM and 240 nM and 260 nM and 160 nM and 244 nM and 200 nM
Lipid absorption inhibition ratio (%) ([2]; Test 1, 30 mg/kg oral): 34%
Lipid absorption inhibition ratio (%) ([2]; Test 1, 100 mg/kg oral): 44%
Lipid absorption inhibition ratio (%) ([2]; Test 2, 100 mg/kg oral): 41%

O=C(CCNCCCCOc1ccc(F)cc1)N1CCc2nc(SC3CCC3)n(-c3ccccc3)c(=O)c2C1 [Example 48, 2-cyclobutylsulfanyl-6-[3-[4-(4-fluorophenoxy)butylamino]propanoyl]-3-phenyl-7,8-dihydro-5H-pyrido[4,3-d]pyrimidin-4-one trifluoroacetate]
IC50 [1, 3]: < 1 nM
Potency relative to Comparative Example 1 (higher = more potent) [1, 4]: >184

O=C(CCNCCCCCOc1ccc(F)cc1)N1CCc2nc(SC3CCC3)n(-c3ccccc3)c(=O)c2C1 [Example 49, 2-cyclobutylsulfanyl-6-[3-[5-(4-fluorophenoxy)pentylamino]propanoyl]-3-phenyl-7,8-dihydro-5H-pyrido[4,3-d]pyrimidin-4-one trifluoroacetate]
IC50 [1, 3]: < 1 nM
Potency relative to Comparative Example 1 (higher = more potent) [1, 4]: >184

O=C(CNCCCOc1ccc(F)cc1)N1CCc2nc(SC3CCC3)n(-c3ccccc3)c(=O)c2C1 [Example 50, 2-cyclobutylsulfanyl-6-[2-[3-(4-fluorophenoxy)propylamino]acetyl]-3-phenyl-7,8-dihydro-5H-pyrido[4,3-d]pyrimidin-4-one trifluoroacetate]
IC50 [1, 3]: 3.7 nM
Potency relative to Comparative Example 1 (higher = more potent) [1, 4]: 73

O=C(CNCCOc1ccc(F)cc1)N1CCc2nc(SC3CCC3)n(-c3ccccc3)c(=O)c2C1 [Example 51, 2-cyclobutylsulfanyl-6-[2-[2-(4-fluorophenoxy)ethylamino]acetyl]-3-phenyl-7,8-dihydro-5H-pyrido[4,3-d]pyrimidin-4-one trifluoroacetate]
IC50 [1, 3]: 4.2 nM
Potency relative to Comparative Example 1 (higher = more potent) [1, 4]: 64

O=C(CNCCCCOc1ccc(F)cc1)N1CCc2nc(SC3CCC3)n(-c3ccccc3)c(=O)c2C1 [Example 52, 2-cyclobutylsulfanyl-6-[2-[4-(4-fluorophenoxy)butylamino]acetyl]-3-phenyl-7,8-dihydro-5H-pyrido[4,3-d]pyrimidin-4-one trifluoroacetate]
IC50 [1, 3]: 1.7 nM
Potency relative to Comparative Example 1 (higher = more potent) [1, 4]: 158

O=C(CNCCCCCOc1ccc(F)cc1)N1CCc2nc(SC3CCC3)n(-c3ccccc3)c(=O)c2C1 [Example 53, 2-cyclobutylsulfanyl-6-[2-[5-(4-fluorophenoxy)pentylamino]acetyl]-3-phenyl-7,8-dihydro-5H-pyrido[4,3-d]pyrimidin-4-one trifluoroacetate]
IC50 [1, 3]: 2 nM
Potency relative to Comparative Example 1 (higher = more potent) [1, 4]: 133

O=C(CNCc1ccc(Oc2cccc(C(F)(F)F)c2)cc1)N1CCc2nc(SC3CCC3)n(-c3ccccc3)c(=O)c2C1 [Example 54, 2-cyclobutylsulfanyl-3-phenyl-6-[2-[[4-[3-(trifluoromethyl)phenoxy]phenyl]methylamino]acetyl]-7,8-dihydero-5H-pyrido[4,3-d]pyrimidin-4-one trifluoroacetate]
IC50 [1, 3]: 2.6 nM
Potency relative to Comparative Example 1 (higher = more potent) [1, 4]: 91

O=C(CNCCCCCNc1ccc(C(F)(F)F)cc1)N1CCc2nc(SC3CCC3)n(-c3ccccc3)c(=O)c2C1 [Example 55, 2-cyclobutylsulfanyl-3-phenyl-6-[2-[5-[4-(trifluoromethyl)anilino]pentylamino]acetyl]-7,8-dihydro-5H-pyrido[4,3-d]pyrimidin-4-one trifluoroacetate]
IC50 [1, 3]: < 1 nM
Potency relative to Comparative Example 1 (higher = more potent) [1, 4]: >207

O=C(CCNCc1nnc(Cc2ccc(C(F)(F)F)cc2)o1)N1CCc2nc(SC3CCC3)n(-c3ccccc3)c(=O)c2C1 [Example 56, 2-cyclobutylsulfanyl[-3-phenyl-6-[3-[5-[[4-(trifluoromethyl)phenyl]methyl]-1,3,4-oxadiazol-2-yl]methylamino]propanoyl]-7,8-dihydro-5H-pyrido[4,3-d]pyrimidin-4-one trifluoroacetate]
IC50 [1, 3]: 5.8 nM
Potency relative to Comparative Example 1 (higher = more potent) [1, 4]: 35

O=C(CNCCCCCOC1CCCCC1)N1CCc2nc(SC3CCC3)n(-c3ccccc3)c(=O)c2C1 [Example 57, 2-cyclobutylsulfanyl-6-[2-[5-(cyclohexoxy)pentylamino]acetyl]-3-phenyl-7,8-dihydro-5H-pyrido[4,3-d]pyrimidin-4-one trifluoroacetate]
IC50 [1, 3]: 2.6 nM
Potency relative to Comparative Example 1 (higher = more potent) [1, 4]: 81

O=C(CNCCCCCOC1CCC(F)(F)CC1)N1CCc2nc(SC3CCC3)n(-c3ccccc3)c(=O)c2C1 [Example 58, 2-cyclobutylsulfanyl-6-[2-[5-(4,4-difluorocyclohexoxy)pentylamino]acetyl]-3-phenyl-7,8-dihydro-5H-pyrido[4,3-d]pyrimidin-4-one trifluoroacetate]
IC50 [1, 3]: 3.3 nM
Potency relative to Comparative Example 1 (higher = more potent) [1, 4]: 63

O=C(CCNCC#CCOc1ccc(C(F)(F)F)cc1)N1CCc2nc(SC3CCC3)n(-c3ccccc3)c(=O)c2C1 [Example 59, 2-cyclobutylsulfanyl-3-phenyl-6-[3-[4-[4-(trifluoromethyl)phenoxy]but-2-ynylamino]propanoyl]-7,8-dihydro-5H-pyrido[4,3-d]pyrimidin-4-one trifluoroacetate]
IC50 [1, 3]: 2.2 nM
Potency relative to Comparative Example 1 (higher = more potent) [1, 4]: 117

O=C(CCNCC1COc2ccccc2O1)N1CCc2nc(SC3CCC3)n(-c3ccccc3)c(=O)c2C1 (stereo not shown) [Example 60, 2-cyclobutylsulfanyl-6-[3-(2,3-dihydro-1,4-benzodioxin-3-ylmethylamino)propanoyl]-3-phenyl-7,8-dihydro-5H-pyrido[4,3-d]pyrimidin-4-one trifluoroacetate]
IC50 ([1]; IC50 (nM), Table 5, Examples 25 to 60, same method): 1.1 nM
vs Comp. Ex. 1 [1, 4]: 140
lipid absorption inhibitory action (in words) ([2]; 30 mg/kg, Comparative Example 1 at 100 mg/kg): comparable to that of the compound of Example 5
Lipid absorption inhibition ratio (%) ([2]; Test 3, 30 mg/kg oral): 42%
